Data: patent publication US8436138B2, “Binder for C-reactive protein” (Modpro AB, priority 2006, dated 2013)

Experiment: Stability in aqueous solution
Assay type: physicochemical
Details: acidic pH (0.1% TFA)
Text: Commercially available aminohexanoic acid 2 was N,N-dimethylated^11 12 by an Eschweiler-Clarke-type procedure (treatment with formaldehyde and hydrogen/palladium/carbon), and the resulting product (3, 86%) was esterified by treatment with methanolic hydrogen chloride to give the methyl ester 4 (96%). Quartenarization was effected by reacting 4 with monomethoxytrityl-protected bromoethanol 1, forming derivative 5 (73%). Unprotected bromoethanol could also be reacted with 4, but the reaction yield was lower and the product was more difficult to detect and purify. Monomethoxytrityl protection conferred lipophilicity and TLC detectability (UV visible and acid stainable) to the crucial intermediate 5. Saponification of 5 with lithium hydroxide/water/t-butanol gave the corresponding acid 6 (95%), which was treated without isolation with p-nitrophenol and diisopropyl carbodiimide in pyridine to give the p-nitrophenyl ester 7 (86%). Brief treatment of 7 with formic acid gave the corresponding alcohol 8, which was used directly in the next step, because of its sensitivity to self-condensation. Reaction of crude 8 at 0° C. in acetonitril with first an excess of phosphorous oxychloride and triethylamine, then water gave the desired monophosphate 9 in 22% yield from 7, after HPLC purification. […]

With `C[N+](C)(CCCCCC(=O)Oc1ccc([N+](=O)[O-])cc1)CCOP(=O)([O-])O` [Peptide 9, 6-(N,N-Dimethylamino)-N-[(2-phosphoryloxy)-ethyl]-hexanoic acid p-nitrophenyl ester] the “stability in aqueous solution” value was “stable”.
